Measurements from ChEMBL document CHEMBL4346715, “Antibacterial activity study of 1,2,4-triazole derivatives” (Eur J Med Chem, 2019).
In brackets after ≈: the same amount, converted by molar mass.

Experiments:
Staphylococcus aureus [1] = experiment: Antibacterial activity against Staphylococcus aureus assessed as zone of inhibition; assay type: functional
Escherichia coli [2] = experiment: Antibacterial activity against Escherichia coli assessed as zone of inhibition; assay type: functional
Salmonella typhimurium [3] = experiment: Antibacterial activity against Salmonella typhimurium assessed as zone of inhibition; assay type: functional, Salmonella enterica subsp. enterica serovar Typhimurium
Bacillus subtilis [4] = experiment: Antibacterial activity against Bacillus subtilis assessed as zone of inhibition; assay type: functional
Escherichia coli [5] = experiment: Antibacterial activity against Escherichia coli incubated for 18 hrs post 30 mins pre-diffusion by disk diffusion method; assay type: functional
Listeria innocua = experiment: Antibacterial activity against Listeria innocua incubated for 18 hrs post 30 mins pre-diffusion by disk diffusion method; assay type: functional
Micrococcus luteus = experiment: Antibacterial activity against Micrococcus luteus incubated for 18 hrs post 30 mins pre-diffusion by disk diffusion method; assay type: functional
Bacillus subtilis [6] = experiment: Antibacterial activity against Bacillus subtilis incubated for 18 hrs post 30 mins pre-diffusion by disk diffusion method; assay type: functional
Aspergillus brasiliensis = experiment: Antifungal activity against Aspergillus brasiliensis ATCC 16404 after 24 hrs by microdilution method; assay type: functional; conditions: ATCC 16404, 24 h
Bacillus cereus = experiment: Antibacterial activity against Bacillus cereus ATCC 10876 after 24 hrs by microdilution method; assay type: functional; conditions: ATCC 10876, 24 h
Staphylococcus aureus [7] = experiment: Antibacterial activity against Staphylococcus aureus ATCC 25923 after 24 hrs by microdilution method; assay type: functional; conditions: ATCC 25923, 24 h
Pseudomonas aeruginosa [8] = experiment: Antibacterial activity against Pseudomonas aeruginosa ATCC 27853 after 24 hrs by microdilution method; assay type: functional; conditions: ATCC 27853, 24 h
Proteus mirabilis = experiment: Antibacterial activity against Proteus mirabilis ATCC 35659 after 24 hrs by microdilution method; assay type: functional; conditions: ATCC 35659, 24 h
Enterococcus faecalis = experiment: Antibacterial activity against Enterococcus faecalis ATCC 29212 after 24 hrs by microdilution method; assay type: functional; conditions: ATCC 29212, 24 h
Candida albicans [9] = experiment: Antifungal activity against Candida albicans ATCC 50193 after 24 hrs by microdilution method; assay type: functional; conditions: ATCC 50193, 24 h
Candida albicans [10] = experiment: Antifungal activity against Candida albicans; assay type: functional
Aspergillus niger = experiment: Antifungal activity against Aspergillus niger; assay type: functional
Escherichia coli [11] = experiment: Antibacterial activity against Escherichia coli ATCC 25922 after 24 hrs by microdilution method; assay type: functional; conditions: ATCC 25922, 24 h
Pseudomonas aeruginosa [12] = experiment: Antibacterial activity against Pseudomonas aeruginosa ATCC 27853 after 24 hrs by broth microdilution method; assay type: functional; conditions: ATCC 27853, 24 h
Listeria monocytogenes [13] = experiment: Potency index, ratio of ciprofloxacin MIC to test compound MIC for Listeria monocytogenes ATCC 35152 after 24 hrs by broth microdilution method; assay type: functional
Listeria monocytogenes [14] = experiment: Antibacterial activity against Listeria monocytogenes ATCC 35152 after 24 hrs by broth microdilution method; assay type: functional; conditions: ATCC 35152, 24 h
Pseudomonas aeruginosa [15] = experiment: Potency index, ratio of ciprofloxacin MIC to test compound MIC for Pseudomonas aeruginosa ATCC 27853 after 24 hrs by broth microdilution method; assay type: functional
Bacillus anthracis = experiment: Antibacterial activity against Bacillus anthracis incubated for 18 hrs post 30 mins pre-diffusion by disk diffusion method; assay type: functional
Staphylococcus aureus [16] = experiment: Antibacterial activity against methicillin-resistant Staphylococcus aureus incubated for 18 hrs post 30 mins pre-diffusion by disk diffusion method; assay type: functional
Staphylococcus aureus [17] = experiment: Antibacterial activity against Staphylococcus aureus ATCC 49444 after 24 hrs by broth microdilution method; assay type: functional; conditions: ATCC 49444, 24 h
Salmonella typhimurium [18] = experiment: Antibacterial activity against Salmonella typhimurium ATCC 14028 after 24 hrs by broth microdilution method; assay type: functional, Salmonella enterica subsp. enterica serovar Typhimurium; conditions: Salmonella enterica, ATCC 14028, 24 h
Escherichia coli [19] = experiment: Antibacterial activity against Escherichia coli after 24 hrs by broth microdilution method; assay type: functional

N#Cc1ccc(-c2nc(-c3ccccc3)c(-c3ccccc3)n2-n2c(-c3ccc(Cl)cc3)n[nH]c2=S)cc1
inhibition zone (IZ) (Staphylococcus aureus [1]): 10 - 18 mm
inhibition zone (IZ) (Escherichia coli [2]): 10 - 18 mm
inhibition zone (IZ) (Salmonella typhimurium [3]): 10 - 18 mm
inhibition zone (IZ) (Bacillus subtilis [4]): 10 - 18 mm

Cn1cnc(CNCc2ncn(C)n2)n1
MIC (Escherichia coli [5]): 7 to 15 µg/mL (≈ 33.8 to 72.4 µM)
MIC (Listeria innocua): 7 to 15 µg/mL (≈ 33.8 to 72.4 µM)
MIC (Micrococcus luteus): 7 to 15 µg/mL (≈ 33.8 to 72.4 µM)
MIC (Bacillus subtilis [6]): 7 to 15 µg/mL (≈ 33.8 to 72.4 µM)

OC(Cn1cncn1)(Cn1cncn1)c1ccc(F)cc1F [FLUCONAZOLE]
MIC (Aspergillus brasiliensis): 1 µg/mL (≈ 3.27 µM)
MIC (Bacillus cereus): 4 µg/mL (≈ 13.1 µM)
MIC (Staphylococcus aureus [7]): 4 µg/mL (≈ 13.1 µM)
MIC (Pseudomonas aeruginosa [8]): 4 µg/mL (≈ 13.1 µM)
MIC (Proteus mirabilis): 4 µg/mL (≈ 13.1 µM)
MIC (Enterococcus faecalis): 4 µg/mL (≈ 13.1 µM)
MIC (Candida albicans [9]): 1 µg/mL (≈ 3.27 µM)
MIC (Candida albicans [10]): 10.2 µg/mL (≈ 33.3 µM)
MIC (Aspergillus niger): 9.4 µg/mL (≈ 30.7 µM)
MIC (Escherichia coli [11]): 4 µg/mL (≈ 13.1 µM)

COc1ccccc1/C=N/n1c(S)nnc1-c1sc(-c2ccccc2)nc1C
MIC (Pseudomonas aeruginosa [12]): 1.95 µg/mL (≈ 4.78 µM)
Ratio (Listeria monocytogenes [13]): 2
MIC (Listeria monocytogenes [14]): 1.95 µg/mL (≈ 4.78 µM)
Ratio (Pseudomonas aeruginosa [15]): 2

CC(C)N(Cc1ncn(C)n1)Cc1ncn(C)n1
MIC (Escherichia coli [5]): 7 to 15 µg/mL (≈ 28.1 to 60.2 µM)
MIC (Listeria innocua): 7 to 15 µg/mL (≈ 28.1 to 60.2 µM)
MIC (Micrococcus luteus): 7 to 15 µg/mL (≈ 28.1 to 60.2 µM)
MIC (Bacillus subtilis [6]): 7 to 15 µg/mL (≈ 28.1 to 60.2 µM)

COC(=O)c1ncn(CNCn2cnc(C(=O)OC)n2)n1
MIC (Escherichia coli [5]): 7 to 15 µg/mL (≈ 23.7 to 50.8 µM)
MIC (Listeria innocua): 7 to 15 µg/mL (≈ 23.7 to 50.8 µM)
MIC (Micrococcus luteus): 7 to 15 µg/mL (≈ 23.7 to 50.8 µM)
MIC (Bacillus subtilis [6]): 7 to 15 µg/mL (≈ 23.7 to 50.8 µM)

CN[C@H](CC(C)C)C(=O)N[C@H]1C(=O)N[C@@H](CC(N)=O)C(=O)N[C@H]2C(=O)N[C@H]3C(=O)N[C@H](C(=O)N[C@H](C(=O)O)c4cc(O)cc(O)c4-c4cc3ccc4O)[C@H](O)c3ccc(c(Cl)c3)Oc3cc2cc(c3O[C@@H]2O[C@H](CO)[C@@H](O)[C@H](O)[C@H]2O[C@H]2C[C@](C)(N)[C@H](O)[C@H](C)O2)Oc2ccc(cc2Cl)[C@H]1O [VANCOMYCIN]
MIC (Bacillus anthracis): 8 µg/mL (≈ 5.52 µM)
MIC (Staphylococcus aureus [16]): 8 µg/mL (≈ 5.52 µM)

CCCCCCCCCCCCn1nnc(-c2n[nH]c(=S)n2-c2ccccc2)c1-c1n[nH]c(=S)n1-c1ccccc1
MIC (Aspergillus brasiliensis): 1 to 128 µg/mL (≈ 1.7 to 218 µM)
MIC (Bacillus cereus): 1 to 128 µg/mL (≈ 1.7 to 218 µM)
MIC (Staphylococcus aureus [7]): 1 to 128 µg/mL (≈ 1.7 to 218 µM)
MIC (Pseudomonas aeruginosa [8]): 1 to 128 µg/mL (≈ 1.7 to 218 µM)
MIC (Proteus mirabilis): 1 to 128 µg/mL (≈ 1.7 to 218 µM)
MIC (Enterococcus faecalis): 1 to 128 µg/mL (≈ 1.7 to 218 µM)
MIC (Candida albicans [9]): 1 to 128 µg/mL (≈ 1.7 to 218 µM)
MIC (Escherichia coli [11]): 1 to 128 µg/mL (≈ 1.7 to 218 µM)

Cn1cnc(CN(CCCO)Cc2ncn(C)n2)n1
MIC (Escherichia coli [5]): 7 to 15 µg/mL (≈ 26.4 to 56.5 µM)
MIC (Listeria innocua): 7 to 15 µg/mL (≈ 26.4 to 56.5 µM)
MIC (Micrococcus luteus): 7 to 15 µg/mL (≈ 26.4 to 56.5 µM)
MIC (Bacillus subtilis [6]): 7 to 15 µg/mL (≈ 26.4 to 56.5 µM)

Cc1nc(-c2ccccc2)sc1-c1nnc(S)n1/N=C/c1ccc(O)cc1
MIC (Pseudomonas aeruginosa [12]): 1.95 to 62.5 µg/mL (≈ 4.96 to 159 µM)
MIC (Staphylococcus aureus [17]): 1.95 to 62.5 µg/mL (≈ 4.96 to 159 µM)
MIC (Salmonella typhimurium [18]): 1.95 to 62.5 µg/mL (≈ 4.96 to 159 µM)
MIC (Listeria monocytogenes [14]): 1.95 to 62.5 µg/mL (≈ 4.96 to 159 µM)
MIC (Escherichia coli [19]): 1.95 to 62.5 µg/mL (≈ 4.96 to 159 µM)

COc1cccc(/C=N/n2c(S)nnc2-c2sc(-c3ccccc3)nc2C)c1
MIC (Pseudomonas aeruginosa [12]): 1.95 µg/mL (≈ 4.78 µM)
Ratio (Listeria monocytogenes [13]): 2
MIC (Listeria monocytogenes [14]): 1.95 µg/mL (≈ 4.78 µM)
Ratio (Pseudomonas aeruginosa [15]): 2

POLYMYXIN B
MIC (Bacillus anthracis): 31 to 1000 µg/mL
MIC (Staphylococcus aureus [16]): 31 to 1000 µg/mL

NC[C@H]1O[C@H](O[C@H]2[C@H](O)[C@@H](O[C@H]3O[C@H](CO)[C@@H](O)[C@H](N)[C@H]3O)[C@H](N)C[C@@H]2N)[C@H](O)[C@@H](O)[C@@H]1O [KANAMYCIN]
MIC (Bacillus anthracis): 31 to 1000 µg/mL (≈ 64 to 2060 µM)
MIC (Staphylococcus aureus [16]): 31 to 1000 µg/mL (≈ 64 to 2060 µM)

Cc1nc(-c2ccccc2)sc1-c1nnc(S)n1/N=C/c1ccc(F)cc1
MIC (Pseudomonas aeruginosa [12]): 1.95 to 62.5 µg/mL (≈ 4.93 to 158 µM)
MIC (Staphylococcus aureus [17]): 1.95 to 62.5 µg/mL (≈ 4.93 to 158 µM)
MIC (Salmonella typhimurium [18]): 1.95 to 62.5 µg/mL (≈ 4.93 to 158 µM)
MIC (Listeria monocytogenes [14]): 1.95 to 62.5 µg/mL (≈ 4.93 to 158 µM)
MIC (Escherichia coli [19]): 1.95 to 62.5 µg/mL (≈ 4.93 to 158 µM)

Cc1nc(-c2ccccc2)sc1-c1nnc(S)n1/N=C/c1ccc([N+](=O)[O-])cc1
MIC (Pseudomonas aeruginosa [12]): 1.95 µg/mL (≈ 4.62 µM)
Ratio (Listeria monocytogenes [13]): 2
MIC (Listeria monocytogenes [14]): 1.95 µg/mL (≈ 4.62 µM)
Ratio (Pseudomonas aeruginosa [15]): 2

CO[C@H]1/C=C/O[C@@]2(C)Oc3c(C)c(O)c4c(O)c(c(/C=N/N5CCN(C)CC5)c(O)c4c3C2=O)NC(=O)/C(C)=C\C=C\[C@H](C)[C@H](O)[C@@H](C)[C@@H](O)[C@@H](C)[C@H](OC(C)=O)[C@@H]1C [RIFAMPIN]
MIC (Bacillus anthracis): 31 to 1000 µg/mL (≈ 37.7 to 1220 µM)
MIC (Staphylococcus aureus [16]): 31 to 1000 µg/mL (≈ 37.7 to 1220 µM)

Cc1nc(-c2ccccc2)sc1-c1nnc(S)n1/N=C/c1ccc(N(C)C)cc1
MIC (Pseudomonas aeruginosa [12]): 1.95 µg/mL (≈ 4.64 µM)
Ratio (Listeria monocytogenes [13]): 2
MIC (Listeria monocytogenes [14]): 1.95 µg/mL (≈ 4.64 µM)
Ratio (Pseudomonas aeruginosa [15]): 2

COC(=O)c1ncn(CN(Cn2cnc(C(=O)OC)n2)C(C)C)n1
MIC (Escherichia coli [5]): 7 to 15 µg/mL (≈ 20.8 to 44.5 µM)
MIC (Listeria innocua): 7 to 15 µg/mL (≈ 20.8 to 44.5 µM)
MIC (Micrococcus luteus): 7 to 15 µg/mL (≈ 20.8 to 44.5 µM)
MIC (Bacillus subtilis [6]): 7 to 15 µg/mL (≈ 20.8 to 44.5 µM)
